# Data published in US20250122174A1 (Shenzhen Yuanli Shenwan Innovative Medicine Co., Ltd., priority 2022, published 2025).
# Biological target: HPK1 (Homo sapiens (Human), UniProt Q92918)
# Assay: HPK1 Inhibition Assay (ADP-Glo kinase assay)
# Type: biochemical
# Details: ATP 10 μM
# Procedure, shortened: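 ADP-Glo luminescence read-out after 1 h room-temperature kinase reaction with 10 μM ATP and 0.1 μg/ml MBP. Recombinant human HPK1 at 7.5 ng/μl; buffer 40 mM Tris pH 7.5, 20 mM MgCl2. Compounds serially diluted 5-fold over 10 points from 10 mM DMSO stock.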
# Sequence of HPK1 (Q92918 1-346 limits assumed): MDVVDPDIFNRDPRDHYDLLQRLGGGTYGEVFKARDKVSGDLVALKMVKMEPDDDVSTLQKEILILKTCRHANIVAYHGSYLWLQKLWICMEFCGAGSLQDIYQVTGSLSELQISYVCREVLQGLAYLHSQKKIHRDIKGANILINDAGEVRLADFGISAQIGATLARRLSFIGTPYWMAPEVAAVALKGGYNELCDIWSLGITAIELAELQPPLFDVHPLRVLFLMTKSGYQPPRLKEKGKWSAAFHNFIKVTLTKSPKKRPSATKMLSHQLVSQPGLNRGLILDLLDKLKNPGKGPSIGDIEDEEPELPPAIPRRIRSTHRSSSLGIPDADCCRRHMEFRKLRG
row,IC50 [nM],SMILES
1,< 100,"Cn1c(C2(C(F)(F)F)CC2)nc2c(N3C[C@H](N)C(C)(C)C3)c(NC(=O)c3ccc(=O)n(-c4c(F)cccc4F)n3)ccc21 [Example 147, (R)-N-(4-(4-amino-3,3-dimethylpyrrolidin-1-yl)-1-methyl-2-(1-(trifluoromethyl)cyclopropyl)-1H-benzo[d]imidazol-5-yl)-1-(2,6-difluorophenyl)-6-oxo-1,6-dihydropyridazine-3-carboxamide]"
2,< 100,"CC1(C)CN(c2c(NC(=O)c3ccc(=O)n(-c4c(F)cccc4F)n3)ccc3nn([C@@H]4CCOC4)cc23)C[C@@H]1N [Example 322, N-(4-((R)-4-amino-3,3-dimethylpyrrolidin-1-yl)-2-((R)-tetrahydrofuran-3-yl)-2H-indazol-5-yl)-1-(2,6-difluorophenyl)-6-oxo-1,6-dihydropyridazine-3-carboxamide]"
3,< 100,"CC(C)c1nc2c(N3C[C@H](C)[C@@H](N)C3)c(NC(=O)c3ccc(=O)n(-c4c(F)cccc4F)n3)ccc2n1C [Example 111, N-(4-((3R,4S)-3-amino-4-methylpyrrolidin-1-yl)-2-isopropyl-1-methyl-1H-benzo[d]imidazol-5-yl)-1-(2,6-difluorophenyl)-6-oxo-1,6-dihydropyridazine-3-carboxamide]"
4,< 100,"COc1cccc(F)c1-c1nccc(C(=O)Nc2cc(F)ccc2N2C[C@H]3C[C@@H]2CN3)c1F [Example 2, N-(2-((1R,4R)-2,5-diazabicyclo[2.2.1]heptan-2-yl)-5-fluorophenyl)-3-fluoro-2-(2-fluoro-6-methoxyphenyl)isonicotinamide]"
5,< 100,"Cn1ncc2c(N3C[C@H](N)C4(CC4)C3)c(NC(=O)c3ccc(=O)n(-c4c(F)cccc4F)n3)ccc21 [Example 174, (R)-N-(4-(7-amino-5-azaspiro[2.4]heptan-5-yl)-1-methyl-1H-indazol-5-yl)-1-(2,6-difluorophenyl)-6-oxo-1,6-dihydropyridazine-3-carboxamide]"
6,< 100,"N[C@@H]1CCN(c2c(NC(=O)c3ccc(=O)n(-c4c(F)cccc4F)n3)ccc3nn(CC(F)(F)F)cc23)C1 [Example 338, (R)-N-(4-(3-aminopyrrolidin-1-yl)-2-(2,2,2-trifluoroethyl)-2H-indazol-5-yl)-1-(2,6-difluorophenyl)-6-oxo-1,6-dihydropyridazine-3-carboxamide]"
7,< 100,"CC(C)c1nc2c(N3CCC[C@H]3CN)c(NC(=O)c3ccc(=O)n(-c4c(F)cccc4F)n3)ccc2n1C [Example 134, (S)-N-(4-(2-(aminomethyl)pyrrolidin-1-yl)-2-isopropyl-1-methyl-1H-benzo[d]imidazol-5-yl)-1-(2,6-difluorophenyl)-6-oxo-1,6-dihydropyridazine-3-carboxamide]"
8,< 100,"C[C@@H]1CN(c2c(NC(=O)c3ccc(=O)n(-c4c(F)cccc4F)n3)ccc3nn(C4CCN(C)CC4)cc23)C[C@@H]1N [Example 308, N-(4-((3R,4R)-3-amino-4-methylpyrrolidin-1-yl)-2-(1-methylpiperidin-4-yl)-2H-indazol-5-yl)-1-(2,6-difluorophenyl)-6-oxo-1,6-dihydropyridazine-3-carboxamide]"
9,< 100,"CC[C@@]1(N)CCN(c2c(NC(=O)c3ccc(=O)n(-c4c(F)cccc4F)n3)ccc3c2nc(C(C)C)n3C)C1 [Example 121, (R)-N-(4-(3-amino-3-ethylpyrrolidin-1-yl)-2-isopropyl-1-methyl-1H-benzo[d]imidazol-5-yl)-1-(2,6-difluorophenyl)-6-oxo-1,6-dihydropyridazine-3-carboxamide]"
10,< 100,"CC(C)Cn1cc2c(N3CC[C@@H](N)C3)c(NC(=O)c3ccc(=O)n(-c4c(F)cccc4F)n3)ccc2n1 [Example 331, (R)-N-(4-(3-aminopyrrolidin-1-yl)-2-isobutyl-2H-indazol-5-yl)-1-(2,6-difluorophenyl)-6-oxo-1,6-dihydropyridazine-3-carboxamide]"
11,< 100,"CC(C)C(C)(C)n1cc2c(N3C[C@@H](C)[C@@H](N)C3)c(NC(=O)c3ccc(=O)n(-c4c(F)cccc4F)n3)ccc2n1 [Example 247, N-(4-((3R,4R)-3-amino-4-methylpyrrolidin-1-yl)-2-(2,3-dimethylbutan-2-yl)-2H-indazol-5-yl)-1-(2,6-difluorophenyl)-6-oxo-1,6-dihydropyridazine-3-carboxamide]"
12,< 100,"C[C@@H]1CN(c2c(NC(=O)c3ccc(=O)n(-c4c(F)cccc4F)n3)ccc3nn(C4(C)CCC4)cc23)C[C@@H]1N [Example 317, 1-(2,6-difluorophenyl)-N-{4-[(3R,4R)-3-amino-4-methyltetrahydro-1H-pyrrol-1-yl]-2-(methylcyclobutyl)indazol-5-yl}-6-oxo-1,2-diazine-3-carboxamide]"
13,< 100,"COCCn1cc2c(N3CC[C@@H](N)C3)c(NC(=O)c3ccc(=O)n(-c4c(F)cccc4F)n3)ccc2n1 [Example 328, (R)-N-(4-(3-aminopyrrolidin-1-yl)-2-(2-methoxyethyl)-2H-indazol-5-yl)-1-(2,6-difluorophenyl)-6-oxo-1,6-dihydropyridazine-3-carboxamide]"
14,< 100,"Cc1nc2c(N3CC[C@@H](N)C3)c(NC(=O)c3ccc(=O)n(-c4c(F)cccc4F)n3)ccc2n1C [Example 73, (R)-N-(4-(3-aminopyrrolidin-1-yl)-1,2-dimethyl-1H-benzo[d]imidazol-5-yl)-1-(2,6-difluorophenyl)-6-oxo-1,6-dihydropyridazine-3-carboxamide]"
15,100 to 1000,"Cc1nc2c(N(C)CC3CNC3)c(NC(=O)c3ccc(=O)n(-c4c(F)cccc4F)n3)ccc2n1C [Example 86, N-(4-((azetidin-3-ylmethyl)(methyl)amino)-1,2-dimethyl-1H-benzo[d]imidazol-5-yl)-1-(2,6-difluorophenyl)-6-oxo-1,6-dihydropyridazine-3-carboxamide]"
16,< 100,"C[C@@H]1CN(c2c(NC(=O)c3ccc(=O)n(-c4c(F)cccc4F)n3)ccc3c2cnn3C2COC2)C[C@@H]1N [Example 258, N-(4-((3R,4R)-3-amino-4-methylpyrrolidin-1-yl)-1-(oxetan-3-yl)-1H-indazol-5-yl)-1-(2,6-difluorophenyl)-6-oxo-1,6-dihydropyridazine-3-carboxamide]"
17,< 100,"C[C@@H]1CN(c2c(NC(=O)c3ccc(=O)n(-c4c(F)cccc4F)n3)ccc3c2cnn3C(C)(C)C)C[C@@H]1N [Example 303, N-(4-((3R,4R)-3-amino-4-methylpyrrolidin-1-yl)-1-(tert-butyl)-1H-indazol-5-yl)-1-(2,6-difluorophenyl)-6-oxo-1,6-dihydropyridazine-3-carboxamide]"
18,< 100,"CO[C@@H]1CN(c2c(NC(=O)c3ccc(=O)n(-c4c(F)cccc4F)n3)ccc3c2cnn3C(C)C)C[C@H]1N (stereo in doubt) [Example 200, N-(4-((3R,4R)-3-amino-4-methoxypyrrolidin-1-yl)-1-isopropyl-1H-indazol-5-yl)-1-(2,6-difluorophenyl)-6-oxo-1,6-dihydropyridazine-3-carboxamide]"
19,< 100,"C[C@@H]1CN(c2c(NC(=O)c3ccc(=O)n(-c4c(F)cccc4F)n3)ccc3c2cnn3C2CCCCC2)C[C@@H]1N [Example 297, N-(4-((3R,4R)-3-amino-4-methylpyrrolidin-1-yl)-1-cyclohexyl-1H-indazol-5-yl)-1-(2,6-difluorophenyl)-6-oxo-1,6-dihydropyridazine-3-carboxamide]"
20,< 100,"N#Cc1ccncc1-c1ccc(NC(=O)c2ccc(=O)n(-c3c(F)cccc3F)n2)c(N2CCC(F)(F)[C@@H](N)C2)c1 [Example 357, (S)-N-(2-(3-amino-4,4-difluoropiperidin-1-yl)-4-(4-cyanopyridin-3-yl)phenyl)-1-(2,6-difluorophenyl)-6-oxo-1,6-dihydropyridazine-3-carboxamide]"
21,< 100,"C[C@H]1CN(c2c(NC(=O)c3ccc(=O)n(-c4c(F)cccc4F)n3)ccc3nn(C4CC(F)(F)C4)cc23)C[C@@H]1N [Example 309, N-(4-((3R,4S)-3-amino-4-methylpyrrolidin-1-yl)-2-(3,3-difluorocyclobutyl)-2H-indazol-5-yl)-1-(2,6-difluorophenyl)-6-oxo-1,6-dihydropyridazine-3-carboxamide]"
22,< 100,"C[C@@H]1CN(c2c(NC(=O)c3ccc(=O)n(-c4c(F)cccc4F)n3)ccc3c2nc(C2(C(F)(F)F)CC2)n3C)C[C@@H]1N [Example 148, N-(4-((3R,4R)-3-amino-4-methylpyrrolidin-1-yl)-1-methyl-2-(1-(trifluoromethyl)cyclopropyl)-1H-benzo[d]imidazol-5-yl)-1-(2,6-difluorophenyl)-6-oxo-1,6-dihydropyridazine-3-carboxamide]"
23,< 100,"Cn1cc2c(N3CCC[C@@H](N)C3)c(NC(=O)c3ccc(=O)n(-c4c(F)cccc4F)n3)ccc2n1 [Example 176, (R)-N-(4-(3-aminopiperidin-1-yl)-2-methyl-2H-indazol-5-yl)-1-(2,6-difluorophenyl)-6-oxo-1,6-dihydropyridazine-3-carboxamide]"
24,< 100,"CC(C)(C)n1cc2c(N3CCC[C@@H](N)C3)c(NC(=O)c3ccc(=O)n(-c4c(F)cccc4F)n3)ccc2n1 [Example 239, (R)-N-(4-(3-aminopiperidin-1-yl)-2-(tert-butyl)-2H-indazol-5-yl)-1-(2,6-difluorophenyl)-6-oxo-1,6-dihydropyridazine-3-carboxamide]"
25,< 100,"CC(C)c1nc2c(N3CC[C@@H](NCCO)C3)c(NC(=O)c3ccc(=O)n(-c4c(F)cccc4F)n3)ccc2n1C [Example 130, (R)-1-(2,6-difluorophenyl)-N-(4-(3-((2-hydroxyethyl)amino)pyrrolidin-1-yl)-2-isopropyl-1-methyl-1H-benzo[d]imidazol-5-yl)-6-oxo-1,6-dihydropyridazine-3-carboxamide]"
26,< 100,"CC(C)n1cc2c(N3C[C@@H](N)C(C)(C)C3)c(NC(=O)c3ccc(=O)n(-c4c(F)cccc4F)n3)ccc2n1 [Example 228, (S)-N-(4-(4-amino-3,3-dimethylpyrrolidin-1-yl)-2-isopropyl-2H-indazol-5-yl)-1-(2,6-difluorophenyl)-6-oxo-1,6-dihydropyridazine-3-carboxamide]"
